Results from patent EP1301165B1, “USE OF AN ALLOMELANIN FOR THE TREATMENT OF INFLAMMATION OR IRRITANCY CAUSED BY DHA AND/OR A SURFACTANT” (Croda Chemicals International Limited, priority 2000, dated 2002).
Values belong to the molecule of their own block, whether it stands above or below them.

Assays:
[1] = Water solubility; format: physicochemical
Description: In contrast, conventional melanins are virtually insoluble. Our melanin derived from caffeic acid has a solubility of about 220g/l. Since caffeic acid has a solubility of below 1g/l, and polymerisation generally leads to a reduction in solubility, this is quite remarkable.

[2] = Fragrance stabilisation test (eau de toilette, daily 37°C / 4°C / sunlight cycle for 7 days, aroma assessed); conditions: daily cycle repeated for 7 days
Procedure: To test the stability of a fragrance in the form of an eau de toilette ("EDT"), we use aliquots of the EDT to which are added two or more concentrations of our melanin ("EDT'') and, as reference examples, two concentrations of BHT (butyrated hydroxytoluene, a known antioxidant used in cosmetics). A further aliquot of the original eau de toilette is used as a control. Test samples are made in clear glass bottles that are half filled with the test samples. This is to allow some penetration of UV light and sufficient gas in the headspace to allow oxidative deterioration of the fragrance to occur.
Samples are stored at 37°C overnight, then are cooled to 4°C and then allowed to stand in direct sunlight, for the rest of the day, being returned to 37°C. In addition bottles are opened before and after the 37°C incubation. This daily cycle is repeated for 7 days and the aromas of each assessed.

[3] = system: skin; experiment: Surfactant sensitivity: skin irritation by 24 hour SLES patch, skin colour by Chroma Meter; format: in vivo, human
Procedure: The effectiveness of our melanin in reducing skin irritation due to a surfactant was investigated. Two human subjects were used. The effect of applying to skin for 24 hours a patch containing a 70% solution of sodium lauryl ether sulphate ('SLES') was compared with the effect of applying an identical patch also containing 0.3% of our melanin ('M'). The colour of the treated skin was monitored for several days using a Chroma Meter. The changes in degrees of redness are tabulated below.

solubility [1]: < 1000 µg/mL
Molecule: O=C(O)/C=C/c1ccc(O)c(O)c1 [caffeic acid]

fragrance stability (aroma) [2]: markedly superior to the control
Molecule: Cc1cc(C(C)(C)C)c(O)c(C(C)(C)C)c1 [BHT, butyrated hydroxytoluene]

Molecule: sodium lauryl ether sulphate [SLES]
Redness Change ([3]; Subject 1, Day 1, patch applied for 24 hours): +6.3 | Redness Change ([3]; Subject 1, Day 2): +4.2 | Redness Change ([3]; Subject 1, Day 6): +0.3 | Redness Change ([3]; Subject 2, Day 1, patch applied for 24 hours): +3.5 | Redness Change ([3]; Subject 2, Day 2): +2.3 | Redness Change ([3]; Subject 2, Day 7): +0.6
